pIC50: −log10 of the molar value.
Key:
[1] = In vivo pharmacokinetic profiling and tissue analysis; conditions: tumour bearing mice
Procedure: An in vivo experiment was performed to get a rough ADME profile and a first impression of the tolerability of the compounds and to determine any acute toxicity. […] Blood samples were taken at regular intervals for studying the kinetics.

MDA-MB 468 = conditions: MTT, MDA-MB 468, 72 h
Procedure: (§1) TNBC cell lines and were seeded at previously determined concentrations in 96-well plates and incubated for 24 h. The next day, the medium was replaced with medium containing either compound or the respective amount of DMSO for the controls. The proliferation was measured after 72 h, by addition of a solution of 1 mg/ml thiazolyl blue (Roth) in PBS, further incubation for 2 h-4 h at 37° C., and lysis of the cells by addition of 50 μl DMSO. The absorbance was read at 570 nm using the Victor3 Multilabel Counter (PerkinElmer).

MDA-MB 231 = conditions: MTT, MDA-MB 231, 72 h
Procedure: as §1

BT-20 = conditions: MTT, BT-20, 72 h
Procedure: as §1

HCC 1806 = conditions: MTT, HCC 1806, 72 h
Procedure: as §1

HCC 1395 = conditions: MTT, HCC 1395, 72 h
Procedure: as §1

TNBC cell lines = conditions: different TNBC cell lines, FIG. 8
Procedure: TNBC cell lines were seeded at previously determined concentrations in 6-well plates and incubated for 24 h. The cells were then treated with the compounds or DMSO only and the colony formation followed daily by visual inspection. Once the colonies were big enough (70-100 cells), the cells were fixed with a solution of 4% PFA in PBS pH 7.4. The colonies were then stained using a solution of 1% Crystal violet and images taken of the individual wells to count the number of colonies. The colony counting and analysis was done using ImageJ.

[2] = test system: Wnt pathway downstream part activated by LiCl; conditions: LiCl activation, FIG. 2
Procedure: (§2) Wnt-3a whole pathway activation (circle); LiCl activation of downstream elements only (square); Renilla, control for cell well-being (triangle).
(§3) For the screens, BT-20 cells, stably transfected with the TOPFlash reporter plasmid were seeded at 15K cells per well in white tissue-culture-treated 96-well plates (Greiner) and incubated overnight. If needed, the cells were additionally transfected with the pRL-CMV plasmid using the X-tremeGENE HP DNA transfection reagent (Roche) according to the manufacturer's protocol and again incubated overnight. […] The medium was then removed and 12 μl 10% sucrose solution was added to the cells to prevent drying. […] Data was analyzed using the Prism 6 Software (GraphPad).

[3] = test system: Renilla luciferase expressed under control of CMV promoter; conditions: FIG. 2
Procedure: as §2, §3

[4] = test system: Wnt pathway (Wnt3a-stimulated) in BT-20 cells; test: TOPFlash reporter assay, Wnt3a activation; format: cell-based; conditions: for Efficacy (%): average efficacy, BT-20 TOPFlash; for Efficacy (%) / pIC50: Wnt3a 250 ng/ml; for pIC50: average potency, BT-20 cells stably transfected with TOPFlash reporter
Text: A commercial (ChemDiv Inc., San Diego, Calif., US) small molecule library (high-diversity GPCR-targeted compound library containing 1000 compounds selected by ChemDiv focusing on maximizing chemical diversity from the 40′000 GPCR-targeted compound library [see http://www.chemdiv.com, particularly http://www.chemdiv.com/gpcr-target-platform-library-2/]) containing 1000 compounds was screened for Wnt pathway inhibitory effect using the TOPflash assay. […] In a first round of screening, 34 randomly chosen compounds resembling compound 1, but presenting some intravariance were tested for their ability to inhibit the Wnt pathway, using the TOPFLash reporter assay.
as §3

[5] = test system: active β-catenin in HCC 1395 cells; conditions: 50 μM, FIG. 4
Procedure: (§4) Cells were seeded to 70-80% confluency in 12-well plates and incubated overnight. The medium was then changed for medium containing compound or DMSO and the cells pre-incubated for 1 h. […] After washing the cells with ice cold PBS, the cells were lysed by addition of 70 μl RIPA buffer (50 mM Tris pH 7.4, 1% Triton X-100, 0.1% SDS, 150 mM NaCl, 1 mM EDTA, 1 mM DTT, protease inhibitors (Roche)) containing phosphatase inhibitors if needed (4 mM NaF, 4 mM Imidazole, 2.3 mM Na2MoO4, 4 mM Na3VO4, 8 mM M C4H4Na2O6*2H2O, 2 mM Na4P2O7, 2 mM β-Glycerophosphate) and shaking 10 min on ice. The cell lysate was collected and centrifuged for 15 min at 16000 g at 4° C. to remove cell debris. The samples were equilibrated using the Bradford method and further separated and analyzed by SDS-PAGE and Western blot respectively.

[6] = test system: total β-catenin in L-cells; conditions: 50 μM, FIG. 4
Procedure: as §4

[7] = test system: cytoplasmic β-catenin in BT-20 cells; conditions: 50 μM, Wnt3a or LiCl, FIG. 3
Procedure: as §4

[8] = microsomal assay
DVL2 and DVL3 in L-cells = conditions: 50 μM, FIG. 5
Procedure: as §4
(§5) The effects of compound 1 on the upper-level phosphoprotein DVL was examined. The phosphoprotein DVL is phosphorylated on over 40 sites upon Wnt-pathway activation, which can be detected as a shift when analysed by electrophoresis.

DVL2 in HCC 1395 cells = conditions: 50 μM, FIG. 5
Procedure: as §4, §5

SMILES: Cc1ccc2[nH]cc(CCNC(=O)CCc3cn(-c4ccccc4)nc3-c3ccc4c(c3)OCO4)c2c1 [Compound 1]
- mean concentration achieved in the breast [1]: around 20 μM
- Tissue concentration, Breast [1]: 92.1 µM
- Tissue concentration, Faeces [1]: 0.1 µM
- Tissue concentration, Intestine [1]: 44.0 µM
- Tissue concentration, Liver [1]: 136.9 µM
- Tissue concentration, Lung [1]: 6.2 µM
- Tissue concentration, Plasma [1]: 3.9 µM
- Tissue concentration, Tumor [1]: 154.3 µM
- Tissue concentration, Urine [1]: 6.6 µM
- Efficiency (%) (MDA-MB 468): 93%
- pIC50 (MDA-MB 468): 4.92
- Efficiency (%) (MDA-MB 231): 63%
- pIC50 (MDA-MB 231): 5.22
- Efficiency (%) (BT-20): 90%
- pIC50 (BT-20): 4.82
- Efficiency (%) (HCC 1806): 79%
- pIC50 (HCC 1806): 4.74
- Efficiency (%) (HCC 1395): 90%
- pIC50 (HCC 1395): 5.10
- colony formation (TNBC cell lines): inhibition of colony formation
- inhibition when downstream part of the pathway is activated by LiCl [2]: do not inhibit
- levels of Renilla luciferase (cell well-being control) [3]: not changing the levels of Renilla luciferase
- suppression of Wnt3a-stimulated pathway activation ([4]; Wnt-3a whole pathway activation, FIG. 2): efficient in specific suppression of the Wnt3a-stimulated pathway activation
- Efficacy (%) [4]: 86.3%
- pIC50 [4]: 4.96
- active β-catenin levels [5]: decrease in the active-β catenin levels
- total β-catenin levels [6]: clear decrease
- accumulation of cytoplasmic β-catenin [7]: essentially recapitulating the results obtained using TopFlash
- CYP stability (% compound after 60 min) [8]: 33%
- CYP UGT stability (% compound after 60 min) [8]: 49%
- DVL2 and DVL3 phosphorylation shift upon Wnt3a stimulation (DVL2 and DVL3 in L-cells): clearly inhibited the shift
- DVL2 phosphorylation shift upon Wnt3a stimulation (DVL2 in HCC 1395 cells): clearly inhibited the shift

SMILES: O=C(CCc1cn(-c2ccccc2)nc1-c1ccc2c(c1)OCO2)NCCc1ccco1 [Compound 7]
- Efficacy (%) [4]: 85.0%
- pIC50 [4]: 4.82

SMILES: O=C(CCc1cn(-c2ccccc2)nc1-c1ccc2c(c1)OCO2)NCCc1ccccc1 [Compound 11]
- Efficacy (%) [4]: 88.4%
- pIC50 [4]: 5.28

SMILES: O=C(CCc1cn(-c2ccccc2)nc1-c1ccc2c(c1)OCO2)NCCc1cccs1 [Compound 13]
- Efficacy (%) [4]: 77.0%
- pIC50 [4]: 5.19

SMILES: Cc1ccccc1Cn1cc(-c2ccncc2)cc1C(=O)N1CCN(c2ccccc2)CC1 [Compound 24]
- mean concentration achieved in the breast [1]: around 8 μM
- Tissue concentration, Breast [1]: 8.6 µM
- Tissue concentration, Faeces [1]: 0.1 µM
- Tissue concentration, Intestine [1]: 0.3 µM
- Tissue concentration, Liver [1]: 0.3 µM
- Tissue concentration, Lung [1]: 0.3 µM
- Tissue concentration, Plasma [1]: 0.3 µM
- Tissue concentration, Tumor [1]: 0.3 µM
- Tissue concentration, Urine [1]: 0.1 µM
- Efficacy (%) [4]: 94.8%
- pIC50 [4]: 4.74
- CYP stability (% compound after 60 min) [8]: 67%
- CYP UGT stability (% compound after 60 min) [8]: 76%

SMILES: O=C(Nc1ccccc1)N1CCC(n2nc(-c3ccccc3)cc2-c2ccccc2)CC1 [Compound 26]
- Efficacy (%) [4]: 72.7%
- pIC50 [4]: 4.78
